Results taken from patent US6387881B1, “Inhibitors and substrates of thrombin” (priority 1992, dated 2002).
Where “and” joins values, the source holds several entries; their conditions need not be identical. Equal values may be shown once. Read-outs that look alike come from different tables or passages of the source.

Assays:
[1] = IC50 with and without incubation (enzyme not given); format: biochemical
Kalhikrein = assay: IC50 against kallikrein; format: biochemical; conditions: single value given, incubation not given; read-out: Kalhikrein no inc/inc
Xa = molecular target: T1, Xa (Homo sapiens, UniProt P00742); assay: IC50 against Xa; format: biochemical; conditions: single value given, incubation not given; read-out: Xa no inc/inc
T1 construct: Plasmin; Xa; Urokinase

Plasmin = Plasmin (Homo sapiens, UniProt P00747); assay: IC50 against plasmin; format: biochemical; conditions: single value given, incubation not given; read-out: Plasmin no inc/inc
Urokinase = Urokinase (Homo sapiens, UniProt P00749); assay: IC50 against urokinase; format: biochemical; conditions: single value given, incubation not given; read-out: Urokinase no inc/inc
human α-thrombin = human α-thrombin (Homo sapiens, UniProt P00734); assay: biochemical; format: biochemical
Procedure: The inhibition of human α-thrombin was determined by the inhibition of the enzyme catalyzed hydrolysis of three different concentrations of the chromogenic substrate S-2238.
200 μl of sample or buffer and 50 μl of S-2238 were incubated at 37° C. for 1 min and 50 μl of human α-thrombin (0.25 NIHu/ml) was added. The initial rate of inhibited and uninhibited reactions were recorded at 405 nm. The increase in optical density was plotted according to the method of Lineweaver and Burke. The Km and apparent Km were determined and Ki was calculated using the relationship: [formula]

[2] = molecular target: T2, bovine thrombin in citrated normal human plasma (Bos taurus, UniProt P00735); assay: Plasma thrombin time (TT), in vitro; format: biochemical; conditions: inhibitor concentration that caused a doubling of the thrombin time
T2 construct: freshly prepared bovine thrombin (5 NIHu/ml saline)
Procedure: (§1) A volume of 150 μl of citrated normal human plasma and 20 μl of buffer or sample were warmed at 37° C. for 1 min. Coagulation was started by adding 150 ul of freshly prepared bovine thrombin (5 NIHu/ml saline) and the coagulation time was recorded on a coagulometer.
(§2) A phosphate buffer, pH 7.8, containing 0.1% bovine serum albumine and 0.02% sodium azide was used. The samples were dissolved in DMSO and diluted with the buffer. When no inhibitor was used DMSO was added to the buffer to the same concentration as that used in the samples. The inhibitor concentrations were plotted against the thrombin times in a semilogarithmic graph from which the inhibitor concentration that caused a doubling (40 sec) of the thrombin time was determined.

[3] = Peripheral blood pressure after intravenous dose; format: in vivo, New Zealand white rabbits; conditions: 4 mg/kg iv. dose
Description: […] R. May, C. M. Hero, K. D. Butler, C. P. Page, JOURNAL OF PHARMACOLOGICAL METHODS, 24, pp 1-35, 1990. Peripheral blood pressure was monitored by a pressure sensor in the carotid artery.

[4] = tested on: 111indium-labelled platelets; assay: Deposition of 111indium-labelled platelets after intravenous dose; format: in vivo, New Zealand white rabbits; conditions: 4 mg/kg iv. dose
Description: M. Hero, K. D. Butler, C. […] Peripheral blood pressure was monitored by a pressure sensor in the carotid artery.

plasma samples = assay: Ex-vivo APTT; format: in vivo, New Zealand white rabbits; set-up: unit not given here; conditions: 1 mg/kg i.v. bolus, rabbit
Procedure: A volume of 150 μl of citrated (3.2%) normal human plasma was incubated at 37° C. with sample (20 μl) or buffer (20 μl, control) for 1 min. To the solution was added reconstituted “AUTOMATED APTT” (available from Organon Teknika, 0.1 ml). Each solution was activated at 37° C. for 5 min.
After activation, calcium chloride (0.1 ml, 0.025M, prewarmed at 37° C.) was added and clot detection was timed using a “semiautomated coagulometer” (Nach, Schnicter und Gross).
(§3) Data was obtained as for in-vitro tests, but using plasma samples obtained at 0, 1, 10, 30 and 60 minutes after dosing of 1 mg/kg, i.v. bolus injection in a marginal ear vein in New Zealand white rabbits, which were anaesthetized from a canula in the carotid artery. [drawing 18]

[5] = tested on: bovine thrombin in plasma samples; assay: Ex-vivo TT; format: in vivo, New Zealand white rabbits; set-up: key: thrombin (coagulation) time in seconds; conditions: 1 mg/kg i.v. bolus, rabbit
Procedure: as §1, §2, §3

[6] = no incubation, read-out: IC50 No Incubations
[7] = with incubation, read-out: IC50 Inc.
[8] = human α-thrombin, S-2238, 37° C., read-out: Ki

Chain of Plasmin (P00747 97-580 limits assumed, species assumed): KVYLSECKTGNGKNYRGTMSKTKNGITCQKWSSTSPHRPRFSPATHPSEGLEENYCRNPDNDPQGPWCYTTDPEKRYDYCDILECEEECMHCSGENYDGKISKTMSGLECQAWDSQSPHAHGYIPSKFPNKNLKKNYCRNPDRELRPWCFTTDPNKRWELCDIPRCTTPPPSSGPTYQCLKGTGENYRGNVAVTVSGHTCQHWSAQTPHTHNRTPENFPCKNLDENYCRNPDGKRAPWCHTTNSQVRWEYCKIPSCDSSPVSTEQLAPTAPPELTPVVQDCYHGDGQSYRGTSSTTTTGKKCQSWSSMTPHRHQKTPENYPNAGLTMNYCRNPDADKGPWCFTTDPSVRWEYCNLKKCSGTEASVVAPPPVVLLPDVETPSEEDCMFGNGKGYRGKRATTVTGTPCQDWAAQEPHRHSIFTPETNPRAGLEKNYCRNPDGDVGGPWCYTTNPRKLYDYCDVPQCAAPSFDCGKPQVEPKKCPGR
Chain of Plasmin (P00747 581-810 limits assumed, species assumed): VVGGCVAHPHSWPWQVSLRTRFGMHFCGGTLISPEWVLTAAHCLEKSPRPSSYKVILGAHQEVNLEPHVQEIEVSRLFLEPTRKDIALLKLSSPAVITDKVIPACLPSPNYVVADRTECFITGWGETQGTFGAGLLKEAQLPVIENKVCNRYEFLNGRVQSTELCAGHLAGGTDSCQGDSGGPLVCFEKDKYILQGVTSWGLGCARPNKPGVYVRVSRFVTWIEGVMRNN
T1 sequence (P00742 41-179 limits assumed): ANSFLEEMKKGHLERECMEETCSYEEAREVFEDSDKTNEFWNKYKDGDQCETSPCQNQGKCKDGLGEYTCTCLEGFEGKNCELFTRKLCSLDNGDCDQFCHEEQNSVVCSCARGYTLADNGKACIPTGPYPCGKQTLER
T1 sequence (P00742 235-488 limits assumed): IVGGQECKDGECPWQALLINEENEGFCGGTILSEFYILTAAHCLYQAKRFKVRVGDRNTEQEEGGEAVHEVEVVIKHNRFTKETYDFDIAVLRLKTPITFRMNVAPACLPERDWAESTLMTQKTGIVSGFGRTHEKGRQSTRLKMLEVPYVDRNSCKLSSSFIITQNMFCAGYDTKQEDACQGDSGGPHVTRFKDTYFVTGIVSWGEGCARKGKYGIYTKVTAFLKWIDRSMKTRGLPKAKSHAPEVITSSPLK

Compound	IC50 [1, 6]	IC50 (Kalhikrein)	IC50 (Xa)	IC50 (Plasmin)	IC50 (Urokinase)	further results
Bzl-Pros-Pro-BoroIrg-Opin [Compound 44]	1.3 µM	1.08 µM	0.512 µM	0.153 µM	0.121 µM	–
N=C(N)NCCCC(NC(=O)C1CCCN1C(=O)C(N)Cc1ccc2ccccc2c1)C(=O)CCC(=O)N1CCCCC1 (mixture of isomers) [Compound 14, D,L-β-Nal-Pro-Arg--k--Gly-Pip]	–	–	–	–	–	Ki (human α-thrombin; read-out: Ki): 11.6 µM; TT [2]: 90.0 µM
CCCCCC(NC(=O)[C@@H]1CCCN1C(=O)[C@H](N)C(c1ccccc1)c1ccccc1)P(=O)(Oc1ccccc1)Oc1ccccc1 (stereo partly drawn) [Compound 23, D-Dpa-Pro-Pgl^P(OPh)2]	0.187 µM	–	–	–	–	IC50 [1, 7]: 0.000938 µM; Ki (human α-thrombin; [8]): 0.48 µM
CC1(C)OB(C(Cc2ccccc2)NC(=O)C2CCCN2C(=O)C(Cc2ccccc2)NC(=O)OCc2ccccc2)OC1(C)C [Compound 41, Z-D-Phe-Pro-BoroPhe-OPinac]	0.0128 µM	16.7 µM	7.94 µM	37.3 µM	6.67 µM	BLOOD PRESSURE Δ% of NORM [3]: 21% Δ% of NORM; PLATELET ACCUMULATION (% OF NORMAL) LEG [4]: NONE; PLATELET ACCUMULATION (% OF NORMAL) LUNG [4]: NONE
CCC(C)CC(NC(=O)[C@@H]1CCCN1C(=O)[C@@H](Cc1ccccc1)NC(=O)OCc1ccccc1)B1OC2CC3CC(C3(C)C)C2(C)O1 (stereo partly drawn) [Compound 22, Z-D-Phe-Pro-BoroMbg-OPin]	0.007 µM	12.9 µM	3.86 µM	11.5 µM	9.13 µM	BLOOD PRESSURE Δ% of NORM [3]: 0 Δ% of NORM; PLATELET ACCUMULATION (% OF NORMAL) LEG [4]: 11%, TRANSIENT % OF NORMAL; PLATELET ACCUMULATION (% OF NORMAL) LUNG [4]: NONE
CCCCCC(NC(=O)[C@@H]1CCCN1C(=O)[C@H](N)Cc1ccccc1)P(=O)(O)O (stereo partly drawn) [Compound 21, D-Phe-Pro-Pgl^P(OH)2]	> 137 µM	–	–	–	–	IC50 [1, 7]: 4.35 µM; Ki (human α-thrombin; read-out: Ki): > 98 µM
CCCCCC(NC(=O)C1CCCN1C(=O)C(Cc1ccccc1)NC(=O)OCc1ccccc1)P(=O)(Oc1ccccc1)Oc1ccccc1 [Compound 19, Z-D-Phe-Pro-Pgl^P(OPh)2]	–	–	–	–	–	Ki (human α-thrombin): > 31 µM
CCCCCC(NC(=O)[C@@H]1CCCN1C(=O)[C@@H](Cc1ccccc1)NC(=O)OCc1ccccc1)B1OC(C)(C)C(C)(C)O1 (stereo partly drawn) [Compound 11, Z-D-Phe-Pro-BoroPgl-OPinac]	–	–	–	–	–	EX-VIVO A.P.T.T. (plasma samples; time 0 min): 46.5 and 26.4; EX-VIVO A.P.T.T. (plasma samples; time 60 min): 53.0 and 38.4; EX-VIVO T.T. ([5]; time 0 min): 30 and 24.5 and 26; EX-VIVO T.T. ([5]; time 1 min): >300 and >200; EX-VIVO T.T. ([5]; time 10 min): >300 and >200
O=C(NC(C(=O)N1CCCC1C(=O)NC(c1ccccc1)P(=O)(Oc1ccccc1)Oc1ccccc1)C(c1ccccc1)c1ccccc1)OCc1ccccc1 [Compound 17, Z-D-Dpa-Pro-Pgl^P(OPh)2]	–	–	–	–	–	Ki (human α-thrombin; [8]): 8.46 µM
COCCCC(NC(=O)C1CCCN1C(=O)C(Cc1ccccc1)NC(=O)OCc1ccccc1)B1OC2CC3CC(C3(C)C)C2(C)O1 [Compound 50, Z-D-Phe-Pro-BoroMpg-OPin]	0.0007 µM	7.26 µM	1.72 µM	3.23 µM	3.63 µM	–
